From US20200237793A1, “IMMUNOMODULATORY OLIGOSACCHARIDES” (The Regents of the University of California, priority 2017, published 2020)

What was measured:
RAW 264.7 cells = assay: Pro-inflammatory cytokine mRNA expression (RT-PCR) in LPS-stimulated macrophages; type: cell-based, murine
Method: RAW246.7 cells were exposed to LPS either alone or in combination with either pooled human milk oligosaccharides (HMOs), or 3′-sialyllactose (3′SL) or 2′-fucosyllactose (2′FL). After 6 hours, IL-6 (A) and IL-1β (B) mRNA levels were measured by RT-PCR and are plotted as mean±standard deviation (n=8) relative the respective mRNA levels in cells that were exposed to LPS alone (**p<0.01; ***p<0.001). HMOs are a group of more than 150 different structurally distinct oligosaccharides and their composition follows a basic structural blueprint (C), containing five monosaccharide building blocks: glucose (dark gray circle), galactose (light gray circle), N-acetylglucosamine (dark gray square), fucose (gray triangle) and sialic acid (gray diamond). 3′SL contains lactose with sialic acid at the terminal end; 2′FL contains lactose with fucose at the terminal end.
HMOs were first isolated and purified from pooled human donor milk (pHMO) by using polymixin B affinity chromatography to remove any lipopolysaccharide (LPS) contamination. RAW 264.7 cells, a murine macrophage cell line, were then incubated with LPS (10 ng/mL) and pHMO (500 μg/mL) for 6 hours. RT-PCR was used to measure cytokine mRNA expression.
A multi-dimensional chromatography approach was used that separates pHMO first by charge and then by size. […]

[1] = system: THP-1 monocytic cell line; assay: Pro-inflammatory cytokine expression in human monocytic cell line; type: cell-based; conditions: human THP-1
Text: (§1) Accordingly, the results with 3′SL translate to primary cells as well as to human macrophages.

[2] = system: collagen antibody-induced arthritis (CAIA) model; assay: Collagen antibody-induced arthritis (CAIA) model; type: in vivo, BALB/c mice
Method: Macrophages and the pro-inflammatory cytokines IL-6 and IL-1β are known to perform a major role in the development and progression of joint destruction in animal models and patients with RA. […] Next, it was asked whether or not the in vitro results translate to an in vivo model. 3′SL efficacy in a collagen antibody-induced arthritis (CAIA) model was tested in mice. In the CAIA model, arthritis is induced by systemic administration of a cocktail of monoclonal antibodies that target various regions of collagen type II, which is one of the major constituents of articular cartilage matrix proteins, followed by the administration of endotoxin (LPS) on day 3. The high uptake rate in the CAIA model and the capacity to synchronize the development of arthritis from the time of antibody injection, makes this a relatively straightforward model that is used to address questions of pathogenic mechanisms and to screen candidate therapeutic agents.
8-week old female BALB/c mice were injected with 1.5 mg of Arthrogen-CIA monoclonal antibody cocktail (Chondrex, Inc.). Three days later, the mice were injected with 25 μg of LPS. Beginning with the time of LPS administration and followed for the next 11 consecutive days, mice were orally gavaged thrice daily with either 3′SL (20 mg in saline) or saline alone as control. With the tester blinded to the study groups, arthritis in each limb was determined once per day. […] By adding together, the scores of all four limbs, the maximum score per mouse is 28. In addition, a caliper was placed across the ankle joint at the widest point to measure ankle thickness in both hind limbs daily. 14 days after antibody cocktail administration, mice were euthanized and hind paws collected and processed for histology. H&E—as well as Toluidine blue-stained sections were scored from 0 to 4 for inflammation, bone erosion and cartilage depletion based on a previously validated scoring system.

[3] = system: bone marrow derived macrophages; assay: Pro-inflammatory cytokine expression in primary mouse cells; type: cell-based
Text: as §1

[4] = hind paws, day 14, score 0 to 4, oral 20 mg thrice daily
[5] = oral gavage 20 mg in saline thrice daily, from LPS administration, vs saline

**Q.** How did the “IL-6 and IL-1β mRNA expression” value (RAW 264.7 cells; LPS-activated macrophages, individual oligosaccharides) turn out when `CC(=O)N[C@H]1[C@H]([C@H](O)[C@H](O)CO)O[C@@](O[C@H]2[C@@H](O)[C@@H](CO)O[C@@H](O[C@H]3[C@H](O)[C@@H](O)C(O)O[C@@H]3CO)[C@@H]2O)(C(=O)O)C[C@@H]1O` (stereo partly shown) [3′SL, 3′-sialyllactose] was run?
**A.** most effective in reducing

**Q.** And the “IC50 (reducing IL-6 and IL-1β mRNA expression)” value (RAW 264.7 cells; dose-range finding studies)?
**A.** around 15 μg/mL

**Q.** What about the pro-inflammatory cytokine expression [1] of the same compound?
**A.** reduced

**Q.** What about the adverse effects ([2]; 14-day study period, oral 20 mg thrice daily) of the same compound?
**A.** No adverse effects were observed

**Q.** What about the “histology score for cartilage damage” value [2, 4] of the same compound?
**A.** significantly lower

**Q.** And the “histology score for erosion” value [2, 4]?
**A.** significantly lower

**Q.** What about the “histology score for inflammation” value [2, 4] of the same compound?
**A.** significantly lower

**Q.** What about the “Baseline-corrected ankle thickness (paw swelling)” value [2, 5] of the same compound?
**A.** significantly reduced

**Q.** And the “clinical index score 28” value [2, 5]?
**A.** significantly reduced

**Q.** And the pro-inflammatory cytokine expression [3]?
**A.** reduced
